Legend:
[1] = Blood pharmacokinetics in male ICR mice; format: in vivo; details: 7.4 MBq i.v., two-compartment model
Method: Injection of novel radiotracers or [68Ga]Ga-PSMA-617 or [68Ga]Ga-PSMA-11 […]
mice (5 mice/group), and the blood sample (5 μL) of each mouse was collected by cutting down the tail end at different time points post injection. The radioactivity of blood samples were measured by a γ-counter and the pharmacokinetics data was calculated using the WinNonlin software.
Figure S3. Time-activity curves of the blood samplesafter injection of 7.4 MBq of [68Ga]Ga-PSMA-4PY (A), [68Ga]Ga-PSMA-Q (B),[68Ga]Ga-PSMA-P (C), [68Ga]Ga-PSMA-617 (D), [68Ga]Ga-PSMA-11 (E), [68Ga]Ga-PSMA-Q-1 (F), [68Ga]Ga-PSMA-Q-2 (G) and [68Ga]Ga-PSMA-Q-3 (H).
(1 picture or pasted object on this page, not shown here)

[2] = tested on: 22Rv1 tumor-bearing mice; experiment: Biodistribution in 22Rv1 tumor-bearing mice; details: for Uptake Blood, Mean / Uptake Bone, Mean / Uptake Heart, Mean / Uptake Kidney, Mean / Uptake Liver, Mean / Uptake Lung, Mean / Uptake Muscle, Mean / Uptake Spleen, Mean / Uptake Tumor (22Rv1), Mean: 0.74 MBq, n = 3
Method: (§1) The animal studies were approved by the institutional animal care and use committee of the Chinese PLA General Hospital. Healthy male ICR mice were injected with either a novel radiotracer (37 MBq in 150 μL) or saline (150 μL) for the radiotoxicity evaluation. […] Biodistribution and micro-PET studies were performed on 22Rv1 and PC-3 xenograft models, and 2-PMPA was used as the PSMA blocker (all details are shown in the Supplementary Materials).
BALB/c nude mice (male, 4-6 weeks) were inoculated subcutaneously with […]
100 mm3, the mice underwent biodistribution study and Micro-PET imaging.
The 22Rv1 tumor-bearing mice were injected with each novel radiotracer or […]
[…] Mice were sacrificed at different time points p.i. (10 min, 30 min, 60 min), tumors and interested organs were harvested, weighed and measured by a γ-counter, the results were expressed as the percentage of injected dose per gram (ID%/g).
Table S1. Uptake values for ex vivo tissues of [ 68Ga]Ga-PSMA-Q (0.74 MBq/mice) in 22Rv1 tumor-bearing mice (10, 30 and 60 min p.i., n = 3/time point).

[3] = Partition coefficient, octanol–water system; format: physicochemical; details: octanol–water (v/v = 1:1), n = 3
Method: The partition coefficient of each novel radiotracer was determined using an octanol–water system (v/v = 1:1). The in vitro stability was determined using two systems (PBS and 5% BSA). The Ki value was measured by the NAALADase assay. The 22Rv1 and PC-3 cell lines were used for the cell-binding study and establishment of the tumor-bearing model (detailed information is shown in the Supplementary Materials).
PBS) and reported as log p ± SD. […]

[4] = tested on: 22Rv1 tumors; experiment: Micro-PET imaging in 22Rv1 tumor-bearing mice; format: in vivo; details: 60 min p.i.
Method: as §1
Table S9. Tumor-to-mu scle (T/M) ratio and tumor- to-kidney (T/K) rati o of radiotracers at 60 min p.i.
The Mice bearing 22Rv1 and PC-3 (n = 3/group) xenograft tumors were […]
Co-injection with 2-PMPA (50 μ g) and each novel tracer (7.4 MBq in 150 μL) was used for blocking. Then the mice were anesthetized with 3% (v/v) isoflurane and underwent Micro-PET scans with continuous 1% (v/v) isoflurane. The images were acquired at 60 min p.i.. In comparison, […]
into another group of mice (n = 3), and Micro-PET schedule was performed as […]
Imaging was performed on a Super Nova PET/CT scanner using a 100-mm-transaxial field of view for PET and 110-mm for CT.
Three-dimensional ordered-subsets expectation maximization reconstruction

[5] = tested on: 22Rv1 cells (mild PSMA+); experiment: Cell uptake / binding in 22Rv1 cells; format: cell-based, human; details: 60 min incubation, 37 °C
Description: Cell lines were kindly provided by the stem cell bank of the Chinese Academy of Sciences. The human prostate cancer epithelial cell lines 22Rv1 (mild PSMA+) and PC-3 (with no PSMA receptor) were used to evaluate the specific cell-binding affinity of the radiotracers, and the results were expressed as percentages of injected activity, IA%/10^6.
Cell Lines and Culture Condition
Cell lines were kindly provided by the stem cell bank, the Chinese Academy of Sciences. The human prostate cancer cell lines 22Rv1 ( mild PSMA positive) and PC3 (PSMA negative) were cultured in RPMI 1640 medium or F12K medium (CORNING, America), supplemented with 10% Fetal Bovine Serum
(GIBCO, The Netherlands) and 1% penicillin-streptomycin (CORNING, America) in a humidified incubator at 37 °C under 5% CO2. Each cell line was passaged when it was at around 80-90% confluence, and harvested using trypsin-ethylenediaminetetraacetic acid (trypsin-EDTA; 0.25% trypsin, 0.02% EDTA, all from KeyGEN BioTECH).
Cells were seeded separately in 24 well plates (1 x 10^5 cells in 1 mL medium/well) and incubated overnight, the medium was changed 2 h before the experiment. For the binding experiments, cells were incubated with novel […]
min, 30 min and 60 min (6 wells/time point). After incubation, the medium was removed and the cells were washed twice with ice-cold phosphate-buffered saline (0.5 mL). Finally, the cells were lysed by NaOH (0.5 M, 0.5 mL). Coincubation of 2-(phosphonomethyl) pentane-1,5-dioic acid […]
(2-PMPA) solution (2 μg/well) and each radiotracer for 60 min was conducted as the blocking experiment. The radioactivity of cells was measured by a γ-counter. The studies were performed in triplicate and the results were reported as the percentage injected activity (IA%/10^6 cells). […]

[6] = biodistribution, 22Rv1 tumor-bearing mice, 60 min p.i.

With `O=C([O-])CN1CCN(CC(=O)[O-])CCN(CC(=O)NCC2CCC(C(=O)NC(Cc3ccc4ccccc4c3)C(=O)NCCCCC(NC(=O)NC(CCC(=O)O)C(=O)O)C(=O)O)CC2)CCN(CC(=O)O)CC1.[68Ga+3]` (stereo not drawn) [[^68Ga]Ga-PSMA-617, reference compound] the Elimination half-life [1] was 28.46 ± 1.64 min, the “Uptake Blood, Mean” value ([2]; 10 min p.i.) was 2.21 ID%/g and the “Uptake Bone, Mean” value ([2]; 10 min p.i.) was 1.17 ID%/g. For the same compound, the “Uptake Heart, Mean” value ([2]; 10 min p.i.) was 2.11 ID%/g, the “Uptake Kidney, Mean” value ([2]; 10 min p.i.) was 16.30 ID%/g and the “Uptake Liver, Mean” value ([2]; 10 min p.i.) was 1.89 ID%/g. For the same compound, the “Uptake Lung, Mean” value ([2]; 10 min p.i.) was 1.40 ID%/g, the “Uptake Muscle, Mean” value ([2]; 10 min p.i.) was 0.87 ID%/g and the “Uptake Spleen, Mean” value ([2]; 10 min p.i.) was 2.11 ID%/g. The “Uptake Tumor (22Rv1), Mean” value ([2]; 10 min p.i.) was 2.10 ID%/g, the “Uptake Blood, Mean” value ([2]; 30 min p.i.) was 0.58 ID%/g and the “Uptake Bone, Mean” value ([2]; 30 min p.i.) was 0.38 ID%/g. For the same compound, the “Uptake Heart, Mean” value ([2]; 30 min p.i.) was 1.20 ID%/g, the “Uptake Kidney, Mean” value ([2]; 30 min p.i.) was 25.77 ID%/g and the “Uptake Liver, Mean” value ([2]; 30 min p.i.) was 1.13 ID%/g. The “Uptake Lung, Mean” value ([2]; 30 min p.i.) was 0.95 ID%/g, the “Uptake Muscle, Mean” value ([2]; 30 min p.i.) was 0.31 ID%/g and the “Uptake Spleen, Mean” value ([2]; 30 min p.i.) was 1.31 ID%/g. For the same compound, the “Uptake Tumor (22Rv1), Mean” value ([2]; 30 min p.i.) was 3.36 ID%/g, the “Uptake Blood, Mean” value ([2]; 60 min p.i.) was 0.33 ID%/g and the “Uptake Bone, Mean” value ([2]; 60 min p.i.) was 0.29 ID%/g. For the same compound, the “Uptake Heart, Mean” value ([2]; 60 min p.i.) was 0.10 ID%/g, the “Uptake Kidney, Mean” value ([2]; 60 min p.i.) was 29.78 ID%/g and the “Uptake Liver, Mean” value ([2]; 60 min p.i.) was 0.51 ID%/g. For the same compound, the “Uptake Lung, Mean” value ([2]; 60 min p.i.) was 0.33 ID%/g, the “Uptake Muscle, Mean” value ([2]; 60 min p.i.) was 0.15 ID%/g and the “Uptake Spleen, Mean” value ([2]; 60 min p.i.) was 0.95 ID%/g. The “Uptake Tumor (22Rv1), Mean” value ([2]; 60 min p.i.) was 4.27 ± 0.10 ID%/g, the “Uptake Tumor (22Rv1), Mean” value ([2]; 60 min p.i., listed as [68Ga]Ga-PSMA-617) was 4.27 ID%/g and the “Tumor-to-kidney (T/K) ratio” value [2, 6] was 0.14 ± 0.01. The “Tumor-to-muscle (T/M) ratio” value [2, 6] was 28.43 ± 0.84, the “Clearance profile in the kidneys” value ([2]; within 60 min p.i.) was “continuously accumulated in the kidneys” and the “Log p pH = 7.4” value [3] was −2.54 ± 0.13. For the same compound, the SUVmax of tumor ([4]; 22Rv1 tumor, 7.4 MBq) was 0.85 ± 0.14, the “Tumor-to-muscle ratio (micro-PET)” value ([4]; 22Rv1 tumor-bearing mice) was 20.43 ± 1.06 and the “Uptake in 22Rv1 cells” value [5] was 4.01 ± 0.42 IA%/10^6.
